Where “and” joins values, the source holds several entries; their conditions need not be identical. Equal values may be shown once.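 Test compounds were applied to cells in 96-well plates for 48 hours at 5 doses. GI50 is the concentration that inhibits growth by half. TGI: concentration producing complete growth inhibition.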
Assays:
Experiment in all cases: NCI-60 cell line screen, 48 h
[1] = tested on: DU-145 prostate
[2] = tested on: BT-549 breast
[3] = tested on: UACC-62 melanoma
[4] = tested on: SNB-19 CNS
[5] = tested on: UACC-257 melanoma
[6] = tested on: OVCAR-5 ovarian
[7] = tested on: LOX IMVI melanoma
[8] = tested on: NCI-H226 lung
[9] = tested on: HS 578T breast
[10] = tested on: SNB-75 CNS
[11] = tested on: OVCAR-3 ovarian
[12] = tested on: MDA-MB-435

SMILES	TGI [1] [µM]	TGI [2] [µM]	GI50 [3]	TGI [3]	GI50 [4]	TGI [4] [µM]	GI50 [5]	TGI [5]	GI50 [6]	TGI [6]	TGI [7]	GI50 [8]	TGI [8]	GI50 [9]	TGI [9]	GI50 [10]	TGI [10]	TGI [11]	TGI [12]
Cn1c2nc3ccccc3c-2cc2ccccc21	> 100	9.09	3.05 µM and 8.55 µM	8.85 µM and 20.8 µM	5.94 µM and 14.7 µM	> 100	3.91 µM and 8.6 µM	35.5 µM and 44 µM	4.12 µM and 11.4 µM	36.9 µM and 40.9 µM	> 31.8 µM and 22.5 µM	3.46 µM and 11.2 µM	19.3 µM and 31.5 µM	4.54 µM and 17.7 µM	16.4 µM and 61.3 µM	3.22 µM and 13.4 µM	12.7 µM and 39.1 µM	> 46.2 µM and 28 µM	> 46.4 µM and 19 µM
CCOC(=O)c1nc2ccc(C(F)(F)F)cc2nc1Oc1ccc(F)cc1	> 100	> 100	–	> 100 µM	–	> 100	–	> 100 µM	–	–	> 100 µM	–	> 100 µM	–	> 100 µM	–	> 100 µM	–	> 100 µM
NC1=NC(OCC2(CO)CCC2)C=C(NCC2(CO)CCC2)N1 (stereo not given)	> 100	> 100	–	> 100 µM	–	> 100	–	> 100 µM	–	> 100 µM	> 100 µM	–	> 100 µM	–	> 100 µM	–	> 100 µM	> 100 µM	> 100 µM
CC(=O)Nc1ccc2c(C)c3c4ccccc4n(C)c3nc2n1	90.4	84.8	–	69 µM	–	> 100	–	57.5 µM	–	51.6 µM	34.2 µM	–	> 100 µM	–	50.2 µM	–	> 100 µM	70.1 µM	45.7 µM
O=S1(=O)CCN(Cc2ccccc2)/C1=N\S(=O)(=O)c1ccc(Cl)cc1	35.3	31.1	–	32 µM	–	> 100	–	35.7 µM	–	33.4 µM	33.5 µM	–	34.4 µM	–	73.8 µM	–	50.9 µM	36.1 µM	36.2 µM
S=C(Nc1cccc(Cl)c1)Nc1ccccn1	> 100	> 100	–	> 100 µM	–	> 100	–	> 100 µM	–	> 100 µM	> 100 µM	–	> 100 µM	–	> 100 µM	–	> 100 µM	> 100 µM	> 100 µM
O=C1CC2(CCC(O)(c3ccc(Cl)cc3)C(C(=O)c3ccc(Cl)cc3)C2)C(=O)c2ccccc2N1 (stereo not given)	> 36.8	49.9	–	> 52.8 µM	–	6.71	–	62.6 µM	–	> 100 µM	> 86.8 µM	–	> 52.5 µM	–	7.44 µM	–	3.82 µM	> 100 µM	> 100 µM
c1ccc(CCN(Cc2nc3ccccc3[nH]2)Cc2nc3ccccc3[nH]2)cc1	31.7	27.2	–	28.3 µM	–	> 31.6	–	32.5 µM	–	71.6 µM	23.1 µM	–	> 68.5 µM	–	43.4 µM	–	36.7 µM	48.5 µM	29.8 µM
CN(C)CCNc1ccc2c(=O)n(CCN(C)C)c(=O)n3c4ccc(N)cc4c(=O)c1c23	2.08	1.87	–	1.21 µM	–	0.788	–	2.51 µM	–	0.844 µM	0.283 µM	–	0.573 µM	–	1.3 µM	–	0.442 µM	1.22 µM	0.273 µM
O=C1N=C(c2ccccc2)O/C1=C\c1ccccc1	> 100	> 100	–	> 100 µM	–	> 100	–	> 100 µM	–	> 100 µM	> 100 µM	–	> 100 µM	–	> 100 µM	–	> 100 µM	> 100 µM	> 100 µM
CC1(O)/C(=N/O)CC2CC1C2(C)C (stereo not given)	> 100	> 100	–	> 100 µM	–	> 100	–	> 100 µM	–	> 100 µM	> 100 µM	–	> 100 µM	–	> 100 µM	–	> 100 µM	> 100 µM	> 100 µM
O=[N+]([O-])c1cccc2nccc(NCC(O)CO)c12 (stereo not given)	75.6	29.6	–	31.5 µM	–	–	–	30 µM	–	42.1 µM	54.7 µM	–	19.4 µM	–	40.7 µM	–	> 63.9 µM	33.7 µM	37.8 µM
COC1OC(CO)C(O)C(OC(=O)c2cc(O)c(O)c(O)c2)C1OC(=O)c1cc(O)c(O)c(O)c1 (stereo not given)	> 100	> 100	–	–	–	> 100	–	> 100 µM	–	> 100 µM	68.2 µM	–	> 100 µM	–	> 100 µM	–	> 100 µM	> 100 µM	> 100 µM
CC(C)CCC[C@@H](C)C1CCC2[C@@H]3CCC4CC(CCC=C(c5cc(Cl)c(OC(=O)c6ccccc6)c(C(=O)O)c5)c5cc(Cl)c(OC(=O)c6ccccc6)c(C(=O)O)c5)CC[C@]4(C)C3CC[C@@]21C (stereo not given in full)	> 100	> 100	–	> 100 µM	–	> 100	–	> 100 µM	–	> 100 µM	–	–	> 100 µM	–	> 100 µM	–	> 100 µM	> 100 µM	> 100 µM

From PubChem BioAssay (NCI)
